Measurements published in the NIST ThermoML archive (doi:10.1021/je050003x).

Assay: cn = amount concentration of the nth substance listed, in mol/dm3
Conditions: 101.3 kPa, Liquid, Open capillary

[Cl-].[Cl-].[Cl-].[Cr+3] [chromium chloride] + O
binary diffusion coefficient [m2/s]
Conditions | c1 = 0.005 | c1 = 0.008 | c1 = 0.01 | c1 = 0.02 | c1 = 0.03 | c1 = 0.05
298.15 K | 1.33e-09 | 1.2e-09 | 1.17e-09 | 1.1e-09 | 1.06e-09 | 1.03e-09
303.15 K | 1.85e-09 | 1.33e-09 | 1.31e-09 | 1.26e-09 | 1.2e-09 | 1.17e-09
